# Data from ChEMBL document CHEMBL3991601, “The target landscape of clinical kinase drugs” (Science, 2017).
# Activity calls are given as the source filed them. For most assays here, no stated cut-off is given here; in the data, actives have a measured Kd and inactives only a lower limit.
# How the values were obtained:
# [1] = target: T1, Activin receptor type-1 (Homo sapiens, UniProt Q04771)
# T1 sequence (Q04771 whole entry): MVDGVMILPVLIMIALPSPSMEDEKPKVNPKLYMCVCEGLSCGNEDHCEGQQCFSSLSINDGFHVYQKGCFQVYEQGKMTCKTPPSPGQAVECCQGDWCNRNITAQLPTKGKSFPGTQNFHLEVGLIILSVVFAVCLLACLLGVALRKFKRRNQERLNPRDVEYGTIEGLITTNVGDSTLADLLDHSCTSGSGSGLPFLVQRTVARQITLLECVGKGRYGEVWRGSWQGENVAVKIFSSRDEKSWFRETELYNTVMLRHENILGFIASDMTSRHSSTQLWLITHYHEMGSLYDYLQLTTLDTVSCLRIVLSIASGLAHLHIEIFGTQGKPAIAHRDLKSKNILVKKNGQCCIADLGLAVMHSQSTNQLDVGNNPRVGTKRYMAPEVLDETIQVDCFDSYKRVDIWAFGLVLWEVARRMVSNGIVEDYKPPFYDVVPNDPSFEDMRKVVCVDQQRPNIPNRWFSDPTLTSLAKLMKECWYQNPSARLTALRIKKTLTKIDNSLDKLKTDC
# [2] = target: T2, Calcium/calmodulin-dependent protein kinase type IV (Homo sapiens, UniProt Q16566)
# T2 sequence (Q16566 whole entry): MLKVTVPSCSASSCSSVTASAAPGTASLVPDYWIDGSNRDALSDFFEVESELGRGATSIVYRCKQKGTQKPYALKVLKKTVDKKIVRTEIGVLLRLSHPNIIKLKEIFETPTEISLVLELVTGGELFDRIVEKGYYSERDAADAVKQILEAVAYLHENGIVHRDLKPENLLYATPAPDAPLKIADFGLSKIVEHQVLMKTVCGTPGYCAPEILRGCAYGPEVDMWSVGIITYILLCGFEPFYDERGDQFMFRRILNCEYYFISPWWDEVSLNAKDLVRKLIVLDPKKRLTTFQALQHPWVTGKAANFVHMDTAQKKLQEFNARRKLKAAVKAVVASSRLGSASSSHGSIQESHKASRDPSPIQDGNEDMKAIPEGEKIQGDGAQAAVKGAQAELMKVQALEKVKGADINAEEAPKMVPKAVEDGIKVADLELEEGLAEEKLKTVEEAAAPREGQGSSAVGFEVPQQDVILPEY
# [3] = target: T3, Serine/threonine-protein kinase Chk1 (Homo sapiens, UniProt O14757)
# T3 sequence (O14757 whole entry): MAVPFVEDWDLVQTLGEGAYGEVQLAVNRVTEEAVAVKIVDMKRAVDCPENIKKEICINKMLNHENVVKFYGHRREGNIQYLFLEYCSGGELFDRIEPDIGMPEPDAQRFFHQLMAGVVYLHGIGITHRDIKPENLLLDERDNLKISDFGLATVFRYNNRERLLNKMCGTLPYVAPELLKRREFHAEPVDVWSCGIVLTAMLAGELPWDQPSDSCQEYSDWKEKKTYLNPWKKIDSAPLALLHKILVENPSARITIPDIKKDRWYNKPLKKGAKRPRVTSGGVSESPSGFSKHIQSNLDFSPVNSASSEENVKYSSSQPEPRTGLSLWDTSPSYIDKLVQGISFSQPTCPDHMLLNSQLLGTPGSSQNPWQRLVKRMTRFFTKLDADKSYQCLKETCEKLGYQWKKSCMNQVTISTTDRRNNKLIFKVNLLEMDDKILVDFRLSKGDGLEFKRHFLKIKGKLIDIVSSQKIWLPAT
# [4] = target: DnaJ homolog subfamily A member 1 (Homo sapiens, UniProt P31689)
# [5] = target: T4, Serine/threonine-protein kinase 3 (Homo sapiens, UniProt Q13188)
# T4 sequence (Q13188 whole entry): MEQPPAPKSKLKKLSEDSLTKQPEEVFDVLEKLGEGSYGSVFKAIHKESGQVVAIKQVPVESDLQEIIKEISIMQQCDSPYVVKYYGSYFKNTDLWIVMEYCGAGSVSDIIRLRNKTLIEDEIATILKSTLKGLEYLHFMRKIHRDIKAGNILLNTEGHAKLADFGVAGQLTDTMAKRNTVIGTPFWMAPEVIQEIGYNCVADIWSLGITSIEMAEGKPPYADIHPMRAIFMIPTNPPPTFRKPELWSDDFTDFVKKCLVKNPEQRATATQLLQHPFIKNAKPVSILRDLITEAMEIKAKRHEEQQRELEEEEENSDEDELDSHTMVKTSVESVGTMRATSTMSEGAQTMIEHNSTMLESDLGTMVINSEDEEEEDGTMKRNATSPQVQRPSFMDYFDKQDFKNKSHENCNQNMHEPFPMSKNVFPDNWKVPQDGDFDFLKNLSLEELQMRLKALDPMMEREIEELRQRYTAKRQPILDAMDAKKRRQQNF
# [6] = target: T5, Non-receptor tyrosine-protein kinase TNK1 (Homo sapiens, UniProt Q13470)
# T5 sequence (Q13470 whole entry): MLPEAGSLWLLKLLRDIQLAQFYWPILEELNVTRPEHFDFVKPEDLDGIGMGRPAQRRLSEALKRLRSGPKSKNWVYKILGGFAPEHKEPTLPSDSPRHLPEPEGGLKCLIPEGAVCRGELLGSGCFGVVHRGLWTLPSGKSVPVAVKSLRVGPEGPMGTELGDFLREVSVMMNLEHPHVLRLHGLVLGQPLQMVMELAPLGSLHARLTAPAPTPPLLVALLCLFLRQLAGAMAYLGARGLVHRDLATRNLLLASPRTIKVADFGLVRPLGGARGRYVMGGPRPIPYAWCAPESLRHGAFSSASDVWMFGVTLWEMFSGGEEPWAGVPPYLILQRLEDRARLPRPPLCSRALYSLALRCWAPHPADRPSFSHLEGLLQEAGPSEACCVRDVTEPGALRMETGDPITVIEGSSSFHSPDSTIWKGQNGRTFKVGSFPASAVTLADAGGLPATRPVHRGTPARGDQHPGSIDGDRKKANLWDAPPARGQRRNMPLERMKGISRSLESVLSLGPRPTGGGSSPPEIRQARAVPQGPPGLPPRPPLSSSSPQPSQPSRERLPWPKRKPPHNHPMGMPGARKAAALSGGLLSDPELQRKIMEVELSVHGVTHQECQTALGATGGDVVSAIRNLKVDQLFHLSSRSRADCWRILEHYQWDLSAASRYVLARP
# [7] = target: Dual specificity protein kinase CLK1 (Homo sapiens, UniProt P49759)
# Sequence of Dual specificity protein kinase CLK1 (P49759 whole entry): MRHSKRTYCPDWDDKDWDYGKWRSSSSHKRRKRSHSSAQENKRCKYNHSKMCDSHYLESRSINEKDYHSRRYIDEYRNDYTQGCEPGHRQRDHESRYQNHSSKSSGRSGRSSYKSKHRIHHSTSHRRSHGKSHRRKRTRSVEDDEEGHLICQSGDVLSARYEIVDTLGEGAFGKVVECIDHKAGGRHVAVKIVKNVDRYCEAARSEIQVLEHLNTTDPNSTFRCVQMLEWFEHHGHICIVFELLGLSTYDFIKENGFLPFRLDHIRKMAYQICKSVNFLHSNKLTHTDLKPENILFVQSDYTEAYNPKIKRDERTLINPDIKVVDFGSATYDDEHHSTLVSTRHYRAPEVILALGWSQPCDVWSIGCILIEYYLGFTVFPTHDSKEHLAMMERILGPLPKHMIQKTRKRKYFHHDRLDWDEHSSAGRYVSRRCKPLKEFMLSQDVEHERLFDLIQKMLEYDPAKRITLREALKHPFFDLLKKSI
# Sequence of DnaJ homolog subfamily A member 1 (P31689 whole entry): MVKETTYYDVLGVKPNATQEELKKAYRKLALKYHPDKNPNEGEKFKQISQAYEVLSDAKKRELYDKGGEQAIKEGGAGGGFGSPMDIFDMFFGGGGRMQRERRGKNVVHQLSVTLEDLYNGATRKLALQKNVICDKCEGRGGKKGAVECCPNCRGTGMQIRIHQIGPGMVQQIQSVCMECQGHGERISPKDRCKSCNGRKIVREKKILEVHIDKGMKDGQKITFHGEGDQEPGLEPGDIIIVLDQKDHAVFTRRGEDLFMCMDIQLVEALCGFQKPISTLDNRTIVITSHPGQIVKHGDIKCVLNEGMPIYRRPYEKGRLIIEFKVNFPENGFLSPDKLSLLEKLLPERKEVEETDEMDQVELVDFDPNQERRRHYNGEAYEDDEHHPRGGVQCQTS
SMILES,Kd [3],Kd [4],Kd [5],Kd [1],Kd [2],Kd [6],Kd [7]
O=c1[nH]c([C@@H]2CCCN2)nc2c1oc1ccc(Cl)cc12,> 30 µM (inactive),> 30 µM (inactive),> 30 µM (inactive),> 30 µM (inactive),> 30 µM (inactive),> 30 µM (inactive),
Cn1cc(-c2[nH]c3cc(NC(=O)[C@H](N)C4CCCCC4)cc4c3c2C=NNC4=O)cn1,,> 30 µM (inactive),> 30 µM (inactive),> 30 µM (inactive),> 30 µM (inactive),> 30 µM (inactive),> 30 µM (inactive)
CCN1CCN(Cc2ccc(Nc3ncc(F)c(-c4cc(F)c5nc(C)n(C(C)C)c5c4)n3)nc2)CC1 [ABEMACICLIB],> 30 µM (inactive),> 30 µM (inactive),> 30 µM (inactive),> 30 µM (inactive),> 30 µM (inactive),> 30 µM (inactive),0.007 µM (active)
Cc1c(NC(=O)OC[C@@H]2COCCN2)cn2ncnc(Nc3ccc4c(cnn4Cc4cccc(F)c4)c3)c12 [AC-480],> 30 µM (inactive),> 30 µM (inactive),> 30 µM (inactive),> 30 µM (inactive),> 30 µM (inactive),> 30 µM (inactive),> 30 µM (inactive)
C=CCn1c(=O)c2cnc(Nc3ccc(N4CCN(C)CC4)cc3)nc2n1-c1cccc(C(C)(C)O)n1 [ADAVOSERTIB],,> 30 µM (inactive),,> 30 µM (inactive),> 30 µM (inactive),> 30 µM (inactive),> 30 µM (inactive)
CN(C)C/C=C/C(=O)Nc1cc2c(Nc3ccc(F)c(Cl)c3)ncnc2cc1O[C@H]1CCOC1 [AFATINIB],,> 30 µM (inactive),,,,,
CCc1cc2c(cc1N1CCC(N3CCOCC3)CC1)C(C)(C)c1[nH]c3cc(C#N)ccc3c1C2=O [ALECTINIB],> 30 µM (inactive),> 30 µM (inactive),> 30 µM (inactive),> 30 µM (inactive),> 30 µM (inactive),> 30 µM (inactive),29.9 µM (active)
S=C(NCc1ccc2c(c1)OCO2)N1CCN(c2ncnc3c2oc2ccccc23)CC1 [AMUVATINIB],> 30 µM (inactive),> 30 µM (inactive),> 30 µM (inactive),> 30 µM (inactive),,> 30 µM (inactive),> 30 µM (inactive)
NC[C@@](O)(c1ccc(Cl)cc1)c1ccc(-c2cn[nH]c2)cc1 [AT-13148],> 30 µM (inactive),> 30 µM (inactive),> 30 µM (inactive),> 30 µM (inactive),> 30 µM (inactive),> 30 µM (inactive),
CCN(CCCOc1ccc2c(Nc3cc(CC(=O)Nc4cccc(F)c4)n[nH]3)ncnc2c1)CCOP(=O)(O)O [BARASERTIB],,> 30 µM (inactive),,,> 30 µM (inactive),> 30 µM (inactive),> 30 µM (inactive)
COc1cc2c(Oc3ccc4[nH]c(C)cc4c3F)ncnc2cc1OCCCN1CCCC1 [CEDIRANIB],,> 30 µM (inactive),,,,,
Cn1c(=O)n(-c2ccc(C(C)(C)C#N)cc2)c2c3cc(-c4cnc5ccccc5c4)ccc3ncc21 [DACTOLISIB],,> 30 µM (inactive),> 30 µM (inactive),> 30 µM (inactive),> 30 µM (inactive),> 30 µM (inactive),> 30 µM (inactive)
O=S(=O)(c1cccc2cnccc12)N1CCCNCC1 [FASUDIL],,> 30 µM (inactive),,> 30 µM (inactive),> 30 µM (inactive),> 30 µM (inactive),0.152 µM
CCc1nc(C(N)=O)c(Nc2ccc(N3CCC(N4CCN(C)CC4)CC3)c(OC)c2)nc1NC1CCOCC1 [GILTERITINIB],> 30 µM (inactive),> 30 µM (inactive),> 30 µM (inactive),0.039 µM (active),0.421 µM (active),0.039 µM (active),
C[C@]1(O)C[C@@H](c2nc(-c3ccc4ccc(-c5ccccc5)nc4c3)c3c(N)nccn32)C1 [LINSITINIB],,> 30 µM (inactive),,> 30 µM (inactive),> 30 µM (inactive),> 30 µM (inactive),> 30 µM (inactive)
N#CCNC(=O)c1ccc(-c2ccnc(Nc3ccc(N4CCOCC4)cc3)n2)cc1 [MOMELOTINIB],> 30 µM (inactive),> 30 µM (inactive),,> 30 µM (inactive),> 30 µM (inactive),> 30 µM (inactive),0.918 µM
CC1(C)CNc2cc(NC(=O)c3cccnc3NCc3ccncc3)ccc21 [MOTESANIB],,> 30 µM (inactive),,,,,
CN(c1ncccc1CNc1nc(Nc2ccc3c(c2)CC(=O)N3)ncc1C(F)(F)F)S(C)(=O)=O [PF-00562271],,> 30 µM (inactive),,,> 30 µM (inactive),> 30 µM (inactive),0.363 µM (active)
Cn1cnc2c(F)c(Nc3ccc(Br)cc3Cl)c(C(=O)NOCCO)cc21 [SELUMETINIB],,> 30 µM (inactive),,,,,
O=C(O)c1ccc2c(c1)nc(Nc1cccc(Cl)c1)c1ccncc12 [SILMITASERTIB],6.17 µM (active),> 30 µM (inactive),> 30 µM (inactive),> 30 µM (inactive),> 30 µM (inactive),> 30 µM (inactive),
COc1cc2c(N3CCN(C(=O)Nc4ccc(OC(C)C)cc4)CC3)ncnc2cc1OCCCN1CCCCC1 [TANDUTINIB],,> 30 µM (inactive),,,,,

# Now from value to molecule, other results behind:
Kd [3],Kd [4],Kd [5],SMILES,Kd [1],Kd [2],Kd [6],Kd [7]
> 30 µM (inactive),> 30 µM (inactive),> 30 µM (inactive),COc1ccc2c(OCc3nnc4ccc(-c5ccccc5)nn34)ccnc2c1 [AMG-208],> 30 µM (inactive),> 30 µM (inactive),> 30 µM (inactive),> 30 µM (inactive)
,> 30 µM (inactive),,C[C@@]1(C(=O)Nc2ccc(F)nc2)CCCN1c1nc(Nc2cc(C3CC3)n[nH]2)c2cccn2n1 [BMS-754807],,,,
> 30 µM (inactive),> 30 µM (inactive),> 30 µM (inactive),CCOc1ccn(-c2ccc(F)cc2)c(=O)c1C(=O)Nc1ccc(Oc2ccnc(N)c2Cl)c(F)c1 [BMS-777607],> 30 µM (inactive),> 30 µM (inactive),> 30 µM (inactive),
